Laboratory results published in US5240962A, “Antiobesity and fat-reducing agents” (priority 1991, dated 1993).
Read-outs that look alike come from different tables or passages of the source.

Legend:
[1] = target: T1, invertase (or β-fructofuranosidase; EC 3.2.1.26) (Saccharomyces cerevisiae, UniProt P00724); experiment: Invertase inhibition; assay type: biochemical; conditions: 200 μg/ml; pH 4.5, sucrose substrate; read-out: % Inhibition of invertase enzyme activity
T1 construct: purchased Sigma Chemical Company
T1 sequence (P00724 20-532): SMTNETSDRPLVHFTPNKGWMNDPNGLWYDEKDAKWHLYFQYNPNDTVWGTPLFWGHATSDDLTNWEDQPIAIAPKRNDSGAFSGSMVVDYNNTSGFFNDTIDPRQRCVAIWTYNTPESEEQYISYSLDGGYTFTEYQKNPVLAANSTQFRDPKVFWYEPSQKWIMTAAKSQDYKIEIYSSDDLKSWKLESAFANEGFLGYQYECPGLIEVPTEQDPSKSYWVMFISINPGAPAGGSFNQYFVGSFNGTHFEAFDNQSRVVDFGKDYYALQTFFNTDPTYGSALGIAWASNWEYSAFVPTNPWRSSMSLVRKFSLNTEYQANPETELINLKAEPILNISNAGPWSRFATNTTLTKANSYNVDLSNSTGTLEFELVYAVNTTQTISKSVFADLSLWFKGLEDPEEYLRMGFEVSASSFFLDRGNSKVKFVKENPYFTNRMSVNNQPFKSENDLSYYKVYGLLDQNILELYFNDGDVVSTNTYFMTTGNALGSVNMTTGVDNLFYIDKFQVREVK
Procedure: The following phenols (compound numbers correspond to those designated in Example 1) were tested at a concentration of 200 μg/ml for their ability to inhibit invertase enzyme activity. The assay was conducted essentially according to the procedure of I. H. Segel, et al., as described in Biochemical Calculation, John Wiley Sons, New York, p. 287-290 (1976).
The invertase (or β-fructofuranosidase; EC 3.2.1.26) was purchased from Sigma Chemical Company. The enzyme solution (100 μg/ml, 0.1 ml), 0.2 M acetate buffer (pH 4.5, 0.2 ml), 0.5 M sucrose (0.2 ml), and a sample solution in water/DMSO (0.6 ml) were combined and incubated for 10 minutes at 37° C. After incubation, the hydrolysis was stopped by the addition of Nelson reagent. Liberated reduced sugar was measured at 500 nm by the method of Somogyi-Nelson [N. Nelson, et al., J. Biol. Chem., 153, 375 (1944)].

[2] = target: T2, α-glucosidase (EC3.2.1.20) (Saccharomyces cerevisiae, UniProt P53341); experiment: α-Glucosidase inhibition; assay type: biochemical
T2 construct: purchased Sigma Chemical Company
T2 sequence (P53341 whole entry): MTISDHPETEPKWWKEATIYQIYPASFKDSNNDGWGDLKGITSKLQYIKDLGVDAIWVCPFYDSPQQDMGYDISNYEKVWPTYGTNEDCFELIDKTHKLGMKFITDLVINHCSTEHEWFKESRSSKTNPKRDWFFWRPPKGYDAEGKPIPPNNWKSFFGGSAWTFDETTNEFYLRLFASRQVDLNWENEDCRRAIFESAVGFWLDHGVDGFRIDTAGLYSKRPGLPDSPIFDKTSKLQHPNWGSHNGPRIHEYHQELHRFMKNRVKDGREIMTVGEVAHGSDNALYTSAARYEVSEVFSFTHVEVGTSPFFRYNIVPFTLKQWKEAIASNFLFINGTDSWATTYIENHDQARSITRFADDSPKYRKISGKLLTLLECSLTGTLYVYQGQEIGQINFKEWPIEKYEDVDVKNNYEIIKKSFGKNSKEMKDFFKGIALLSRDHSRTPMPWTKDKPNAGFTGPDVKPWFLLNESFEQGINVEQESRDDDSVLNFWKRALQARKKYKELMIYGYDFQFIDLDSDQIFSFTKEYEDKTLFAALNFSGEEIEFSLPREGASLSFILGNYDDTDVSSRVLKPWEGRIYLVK
Procedure: The assay was conducted essentially according to the procedure of H. L. Lai, as described in Biochem. Biophys.
The α-glucosidase (EC3.2.1.20) was purchased from Sigma Chemical Company. The enzyme solution (100 μg/ml, 0.1 ml), 0.1 M phosphate buffer (pH 6.8, 2.55 ml), 10 mM nitrophenyl glucoside (0.1 ml), and a sample solution in DMSO (0.15 ml) were combined and incubated for 10 minutes at 37° C. After incubation, the hydrolysis was stopped by the addition of 1 ml of 16(w/v)% of sodium carbonate. Liberated p-nitrophenol was measured at 400 nm.

[3] = Effect on body weight of slightly obese mice, drug-food mixture; assay type: in vivo, mice (ICR); conditions: for Body weight change compared with control group (in words): 4 weeks; for Body weight gain, Week Four / Body weight gain, Week One / Body weight gain, Week Three / Body weight gain, Week Two: ad libitum, female ICR mice
Procedure: Slightly obese female mice (ICR) having an average weight of 20-25 g were used in these studies. Compound 1 (Example 1; anacardic acid) was administered as a drug-food mixture. Normal mouse chow was powdered and the drug added to achieve a final concentration of 1 mg (low dose), 3 mg (intermediate dose), and 10 mg (high dose) per 100 g of food. The powdered chow was then repelleted into its usual form. Control chow was similarly prepared without addition of drug. Four groups of ten animals were assigned to receive normal chow (controls) or the drug in the low dose, in the intermediate dose or in the high dose. The animals were fed ad libitum over a 4-week period.

[4] = Effect on fat content of broiler chickens; assay type: in vivo; conditions: 27 days; for Fat Weight / Final Body Weight: broilers
Procedure: Four groups of 5 seven-day old broiler having an average weight of 129 g were used. A test diet was available ad libitum to all birds during the test period (27 days).
Control birds received no test compound. […] At the conclusion of the test, all birds were sacrificed and processed to determine fat weights and body weights. Feed intake was also recorded.

[5] = Toxicity in mice over 4 weeks; assay type: in vivo; conditions: 300 mg/kg dose, over a period of 4 weeks
Text: This finding, combined with in vitro enzyme inhibiting activities, provides evidence that the naturally occurring phenols of the formula (I) have unexpected utility in treating obesity in a mammalian subject.

[6] = Effect on body fat in rats on carbohydrate enriched diet; assay type: in vivo, Sprague-Dawley rats; conditions: for Epididymal Fat Weight / Final Body Weight / Inguinal Fat Weight: male rats
Text: Male Sprague-Dawley weanling rats (Bioresearch Services, Oriental Yeast Co. Ltd.) of three weeks old were used in this study. They were allotted to two treatment groups of five rats when they weighed an average of about 65 g. The animals were fed carbohydrate enriched diets ad libitum for a period of 31 days.
Control rate received the above diet. Two groups received different levels of compound 1 (Example 1), 0.1% and 0.2%, respectively. At the conclusion of the test, all animals were sacrificed. Inguinal fat, epididymal fat, liver, kidney, spleen, lung, heart, thymus gland, brown adipose tissue and pectoral muscle were excised and weighted.

[7] = 10 minutes at 37° C., pH 6.8, nitrophenyl glucoside substrate
[8] = High dose, 10 mg per 100 g of food
[9] = Intermediate dose, 3 mg per 100 g of food
[10] = Low dose, 1 mg per 100 g of food

Question: Which inhibition at 200 µg/mL [1] does the source give for C=CC/C=C\C/C=C\CCCCCCCc1cc(O)cc(O)c1 [Compound 16, 5-[8(z), 11(z), 14-pentadecatrienyl]resorcinol] here?
Answer: 32%

Question: And the IC50 [2]?
Answer: 44.5 µM

Question: With CCCCCCCCCCCCCCCc1cc(O)cc(O)c1 [Compound 13, 5-Pentadecylresorcinol] as the molecule, how does the IC50 [2, 7] read?
Answer: 268 µM

Question: For CCCCCC/C=C\CCCCCCCc1cc(O)c(C)c(O)c1 [Compound 10, 2-methyl-5-[8(z)-pentadecenyl]resorcinol], which IC50 [2, 7] is on record?
Answer: 165 µM

Question: Which IC50 [2, 7] does the source give for CCCCCCCCCCCCCCCc1cccc(O)c1 [Compound 5, 3 - Pentadecylphenol] here?
Answer: 483 µM

Question: For CCCCCCCCCCCCCCCc1cc(O)c(C)c(O)c1 [Compound 9, 2-Methyl-5-pentadecylresorcinol], which IC50 [2, 7] is on record?
Answer: 38.9 µM

Question: Which inhibition at 200 µg/mL [1] does the source give for C=CC/C=C\C/C=C\CCCCCCCc1cc(O)c(C)c(O)c1 [Compound 12, 2-methyl-5-[8(z), 11(z), 14-pentadecatrienyl]resorcinol] here?
Answer: 79%

Question: And the IC50 [2, 7]?
Answer: 170 µM

Question: Which “Body weight change compared with control group (in words)” value (“Body weight change” for short) [3, 8] does the source give for CCCCCCCCCCCCCCCc1cccc(O)c1C(=O)O [Compound 1, 6 - Pentadecylsalicylic Acid] here?
Answer: gained less weight than mice in the control group

Question: What about the “Body weight gain, Week Four” value [3, 8] of the same molecule?
Answer: +4.75 g

Question: And the “Body weight gain, Week One” value [3, 8]?
Answer: +0.31 g

Question: And the “Body weight gain, Week Three” value [3, 8]?
Answer: +4.13 g

Question: What about the “Body weight gain, Week Two” value [3, 8] of the same molecule?
Answer: +1.88 g

Question: What about the “Body weight change” value [3, 9] of the same molecule?
Answer: gained less weight than mice in the control group

Question: What about the “Body weight gain, Week Four” value [3, 9] of the same molecule?
Answer: +5.00 g

Question: What about the “Body weight gain, Week One” value [3, 9] of the same molecule?
Answer: +0.56 g

Question: What about the “Body weight gain, Week Three” value [3, 9] of the same molecule?
Answer: +4.5 g

Question: What about the “Body weight gain, Week Two” value [3, 9] of the same molecule?
Answer: +2.13 g

Question: What about the “Body weight change” value [3, 10] of the same molecule?
Answer: no significant deviation in body weight from the control group

Question: And the “Body weight gain, Week Four” value [3, 10]?
Answer: +5.13 g

Question: And the “Body weight gain, Week One” value [3, 10]?
Answer: +0.63 g

Question: And the “Body weight gain, Week Three” value [3, 10]?
Answer: +4.63 g

Question: And the “Body weight gain, Week Two” value [3, 10]?
Answer: +2.19 g

Question: What about the IC50 [2, 7] of the same molecule?
Answer: 7.17 µM

Question: And the “Fat Weight” value ([4]; 0.1% in diet)?
Answer: 12 g

Question: And the “Final Body Weight” value ([4]; 0.1% in diet)?
Answer: 110 g

Question: What about the “Fat Weight” value ([4]; 0.2% in diet) of the same molecule?
Answer: 10 g

Question: What about the “Final Body Weight” value ([4]; 0.2% in diet) of the same molecule?
Answer: 108 g

Question: And the “Loss of the initial body weight” value ([4]; birds receiving anacardic acid in diet)?
Answer: approximately 10%

Question: What about the Toxicity [5] of the same molecule?
Answer: no toxicity

Question: And the “Epididymal Fat Weight” value ([6]; 0.1% in diet, 31 days)?
Answer: 3.2 g

Question: What about the “Final Body Weight” value ([6]; 0.1% in diet, 31 days) of the same molecule?
Answer: 301.6 g

Question: What about the “Inguinal Fat Weight” value ([6]; 0.1% in diet, 31 days) of the same molecule?
Answer: 7.1 g

Question: And the “Epididymal Fat Weight” value ([6]; 0.2% in diet, 31 days)?
Answer: 3.7 g

Question: And the “Final Body Weight” value ([6]; 0.2% in diet, 31 days)?
Answer: 311.0 g

Question: And the “Inguinal Fat Weight” value ([6]; 0.2% in diet, 31 days)?
Answer: 7.5 g

Question: What about the “Reduction in fat deposition” value ([6]; anacardic acid in the animal diet, statement on Tables 4 and 7 (broilers and rats)) of the same molecule?
Answer: ≥ 20%

Question: And the “Loss of initial body weight” value ([6]; rats receiving anacardic acid in diet, 31 days)?
Answer: less than 10%

Question: Which inhibition at 200 µg/mL [1] does the source give for C=CC/C=C\C/C=C\CCCCCCCc1cccc(O)c1C(=O)O [Compound 4, 6-[8(z), 11(z), 14pentadecatrienyl] salicylic acid] here?
Answer: 73%

Question: What about the IC50 [2, 7] of the same molecule?
Answer: 0.876 µM

Question: Which IC50 [2, 7] does the source give for CCC/C=C\C/C=C\CCCCCCCc1cc(O)c(C)c(O)c1 [Compound 11, 2-methyl-5-[8(z), 11(z)-pentadecadienyl] resorcinol] here?
Answer: 151 µM

Question: With CCC/C=C\C/C=C\CCCCCCCc1cccc(O)c1C(=O)O [Compound 3, 6-[8(z), 11(z)-pentadecadienyl] salicylic acid] as the molecule, how does the IC50 [2, 7] read?
Answer: 3.77 µM
